Assays:
rat vagina [1] = test: Histological evaluation of epithelium, lamina propria and muscularis in the seven rat vaginal segments; format: in vivo; conditions: OVX rats, 36 wk; for epithelium morphology: Acolbifene 2.5, Premarin 0.5 mg/kg oral, DHEA 80 mg/kg dorsal skin
Text: (§1) The animals were housed individually and were allowed free access to water and rodent food (Lab Diet 5002, Ralston Purina, St-Louis, Mo.).
(§2) Animals from the intact and OVX control groups received the vehicle alone.
(§3) Twenty-four hours after the last dosing, overnight fasted animals were sacrificed under isoflurane anesthesia by exsanguination at the abdominal aorta (9 animals per group) or by intracardiac perfusion with 10% neutral buffered formalin (5 animals per group). Vaginae from non-perfused animals were collected and weighed, while the vaginae collected from perfused animals were marked with black ink on the ventral side, and then trimmed as described below.
The entire vagina of each perfused animal was post-fixed in 10% neutral buffered formalin.
The degree of compactness of collagen fibers in the vagina was categorized as low, moderate and high (FIGS. 6A-6C, respectively), as observed in the area proximal to the epithelium. <<Low>> and <<moderate compactness>> were associated with the presence of coarse collagen fibers loosely or less loosely aggregated together, respectively, while <<high compactness>> was the term used to describe tightly packed fine collagen fibers, displaying a smooth, textured appearance. In all the animals, there were relatively few fibrocytes in proportion to the amount of collagen, and they appeared predominantly flattened and shrunken.

rat vagina [2] = test: Vaginal weight after 36 weeks of treatment; format: in vivo; conditions: OVX rats, 36 wk, mean±SEM; OVX 101±5, intact 205±11
Text: as §2, §3
Data are presented as means±SEM of 8-9 animals per group for vaginal weight or 5 animals per group for vaginal layer thickness determinations. Statistical significance was determined according to the multiple-range test of Duncan-Kramer (Kramer, 1956, Biometrics, 12: 307-310).

ERα = test: Immunohistochemistry of ERα in fifth vaginal segment; format: in vivo, rat; conditions: OVX rats, 36 wk
Experimental: as §2
Immunostaining was performed using Zymed SP kits (San Francisco, Calif.). Paraffin sections (4 μm) were deparaffinized in toluene and rehydrated through ethanol. Endogenous peroxidase activity was eliminated by preincubation with 3% H2O2 in methanol for 30 min. A microwave retrieval technique using citrate buffer (Tacha and Chen, 1994) was applied. After cooling the slides, non-specific binding was blocked using 10% goat serum for 20 min. Sections were then incubated for 1.5 h at room temperature with ERα (AB-1, Calbiochem, California), AR (N-20, Santa Cruz Biotechnology, California) or PR (Ab-4, NeoMarkers, California) antibodies, at 1:200, 1:250 and 1:250 respectively. After washing in PBS buffer, sections were incubated with biotinylated anti-rabbit secondary antibody for 10 min and thereafter with streptavidin-peroxidase for another 10 min. Diaminobenzidine was used as the chromogen to visualize the biotin/streptavidin-peroxidase complex, under microscope monitoring. Counterstaining was performed using #2 Gill's hematoxylin for 30 sec. For controls, immunoabsorption with an excess of the peptide used to raise the antibody, or substitution with non immune rabbit IgG, was performed.

[3] = DHEA blood levels after topical DHEA (Example 1); format: in vivo, rat; conditions: DHEA 80 mg/kg topically on dorsal skin, rats
Text: as §2

rat vagina [4] = test: Intravaginal DHEA suppository: vaginal epithelium morphology in OVX rats (Example 3); format: in vivo; conditions: 14 days
Text: as §1
(§4) The insertion into the vagina of one suppository began on day 5 of the study and was continued once daily until day 18 of the study, for a total of 14 days of treatment. The suppository was gently placed in the vaginal opening and then delicately pushed about 2-3 mm inside the vagina with the help of a small, smooth glass stick, disinfected in 70% alcohol and dried between each animal.
Vagina—including the urethra—and uterus were collected, and then trimmed as described below. For further analysis, two pieces of inguinal mammary gland were sampled, as well as a square piece of about 2 X 2 cm of shaved dorsal skin, the latter being put and gently flattened on a piece of carton.
Any other lipophilic base such as Fattibase, Wecobee, cocoa butter, theobroma oil or other combinations of Whitepsol bases could also be used. […] The proper amount of suppository base pellets to weight in order to obtain the final volume needed was calculated based on the previously measured density of the suppository base, which was 47.5 mg per 50 μl. The suppository base was put in a small beaker, melted in microwave at power 50% for about 3 min and 30 sec and then transferred on a heating plate, which was adjusted at the lowest power in order to keep the suppository base at a temperature of 50±3° C. […] These moulds were made from microcentrifuge tubes, each of them previously calibrated with 50 μl of water and cut at the level of the line drawn at the water surface. After 30 min of cooling at room temperature, the suppositories were put at 4° C. for another 30 min. Finally, the excess of base was trimmed with a razor blade and the suppositories were removed from their moulds and stored in closed glass bottles at 4° C. until use. They were allowed to reach room temperature before being applied to the animals.
The organs were immersed in 10% neutral buffered formalin immediately after resection. Each vagina and uterus was divided into 8 equal cross-segments and 4 cross-segments including two from the cervix and two from each of the two proximal and distal horns, respectively. The segments were then routinely processed and embedded all together in the same paraffin block.
Segment 6 represented the deeper vaginal mucosa and is separated from the uterine cervix by only one segment.

[5] = Body weight after 14-day intravaginal DHEA suppository; format: in vivo, rat; conditions: OVX rats, 14 days
Text: as §1, §4

[6] = Serum concentration of DHEA after intravaginal application; format: in vivo; conditions: female, rat
Text: as §4

rat vagina [7] = conditions: ovariectomized rat, DHEA 30 mg twice daily on dorsal skin, one, three or six months; cited from earlier work

C[C@]12CC[C@H](O)CC1=CC[C@@H]1[C@@H]2CC[C@]2(C)C(=O)CC[C@@H]12 [DHEA, dehydroepiandrosterone]
reversal of the OVX-induced epithelial atrophy (rat vagina [1]; at the doses used): partially reversed
layers of mucous cells in the vaginal epithelium (rat vagina [1]; segment 5): 3-5 layers
epithelium morphology (rat vagina [1]; segment 1): KS-LHM
epithelium morphology (rat vagina [1]; segment 2): LHM
epithelium morphology (rat vagina [1]; segment 3): LHM
epithelium morphology (rat vagina [1]; segment 4): LHM
epithelium morphology (rat vagina [1]; segment 5): LHM
epithelium morphology (rat vagina [1]; segment 6): LHM-SCM
epithelium morphology (rat vagina [1]; segment 7): LHM-SCM
vaginal weight (rat vagina [2]): 171 ± 12 mg
ERα: labeling intensity (ERα; epithelium): ++
ERα: semi-quantitative evaluation of labeled nuclei (ERα; epithelium): 2
ERα: labeling intensity (ERα; lamina propria): +++
ERα: semi-quantitative evaluation of labeled nuclei (ERα; lamina propria): 2
ERα: labeling intensity (ERα; muscularis): +++
ERα: semi-quantitative evaluation of labeled nuclei (ERα; muscularis): 3
DHEA blood levels [3]: 70 to 100 nmol/L
vaginal epithelium thickness (rat vagina [4]; DHEA 0.33 mg/suppository intravaginal, segment 6): 2-5 cell layers
animals displaying mild inflammation (rat vagina [4]; DHEA 0.33 mg/suppository, unevenly distributed over the whole vagina): four
animals displaying mild inflammation (rat vagina [4]; DHEA 0.66 mg/suppository, three external segments): two
animals displaying mild inflammation (rat vagina [4]; DHEA 1.00 mg/suppository, four external segments): four
body weight compared with placebo group ([5]; DHEA 0.33 mg suppository intravaginal): slightly decreased
body weight compared with placebo group ([5]; DHEA 0.66 mg suppository intravaginal): slightly decreased
decrease of body weight compared with placebo group ([5]; DHEA 1 mg suppository intravaginal): more pronounced
AUC ([6]; 0.33 mg): 32 ± 4 ng·h/mL
AUC ([6]; 0.66 mg): 50 ± 7 ng·h/mL
AUC ([6]; 1 mg): 131 ± 23 ng·h/mL
histopathologic examination of the vagina (rat vagina [7]): reversal of vaginal mucosal atrophy

Reference: patent US10076525B2, “Sex steroid precursors alone or in combination with selective estrogen receptor modulators for the prevention and treatment of dyspareunia in postmenopausal women” (ENDORECHERCHE, INC., priority 2004, dated 2018)
